This is an account of results in US20120058133A1, “INHIBITION OF TRNA SYNTHETASES AND THERAPEUTIC APPLICATIONS THEREOF” (President and Fellows of Harvard College, priority 2009, published 2012).

For data set [1], the system named is passive EAE in RAG2-deficient mice. The experiment in a line: Passive EAE (transfer of PLP-reactive T cells). The format is in vivo, mouse. Particulars: 2 μg HF daily i.p. The source says:
The ability of systemic HF treatment to block IL-17 expression and associated autoimmune inflammation in vivo was examined using two distinct models of experimental autoimmune encephalomyelitis (EAE). […] The second model, a passive model of EAE induction, is initiated by the transfer of myelin proteolipid protein (PLP)-reactive T cells into lymphopenic hosts.
Passive EAE was induced by intravenous transfer of purified CD3^+ splenic T cells isolated from PLP TCR transgenic B10.S mice into syngeneic RAG2-deficient mice (3×10^6 cells/mouse) (Waldner et al., J. Clin. Invest. 113(7):990-997, 2004).
Mice were injected daily with HF (2 μg/mouse) or vehicle control (DMSO) i.p. Clinical signs of EAE were assessed according to the following score: 0, no signs of disease; 1, flaccid tail; 2, weak gait/hind limb paresis; 3, hind limb paralysis; 4, tetraplegia; 5, moribund. Cytokine production during EAE was determined either in peripheral T cells isolated from spleen or lymph nodes of mice prior to disease onset (day 6-10) or in mononuclear cells isolated from the brain and spinal cords of mice with severe disease (clinical score ≧2) between days 15-20. Briefly, splenocytes were stained for intracellular cytokines following erythrocyte lysis with ammonium chloride buffer. T cells were isolated from brain and spinal cords of mice with active EAE following perfusion with cold PBS. […]

Another data set deals with EPRS. The experiment in a line: Prolyl-tRNA charging by purified EPRS. The data set is classed as biochemical, rat. From the text: FIG. 23E is a graph showing that HF inhibits purified EPRS activity. EPRS was purified from rat liver and assayed for prolyl-tRNA charging activity as previously described (Ting, S. M., Bogner, P. & Dignam, J. D. Isolation of prolyl-tRNA synthetase as a free form and as a form associated with glutamyl-tRNA synthetase. J Biol Chem 267, 17701-17709, (1992)). Data are representative of three separate experiments.
The effects of HF on prolyl-tRNA charging was examined. RRL were supplemented with ^14C-Pro or ^35S-Met in the presence or absence of HF, and total tRNA was isolated (FIG. 23D).

Another data set concerns Smad2 phosphorylation. The experiment in a line: TGFβ-stimulated Smad2 phosphorylation in fibroblasts. The format is cell-based, mouse. The method, then:
FIG. 30. Proline addition to fibroblasts rescues HF-inhibition of TGFβ Signaling. MEFs were treated with HF for 12 hours in the presence or absence of 2 mM proline, treated with 2 ng/mL TGFβ for 1 hour, and assayed for total Smad2 or pSmad2 by Western blot. Total and pSmad2 levels were quantitated using Image J software (bottom panel). Data are representative of three separate experiments.
FIG. 31. HF Dose response for pGCN2-induction and pSmad2-inhibition. Fibroblasts were treated for 12 hours with the indicated dose of HF and analyzed for Smad2 or GCN2 phosphorylation by Western blot. Data are representative of three separate experiments.
FIG. 32. pSmad2 inhibition by HF develops slowly over time. Fibroblasts were treated for the indicated time with 20 nM HF, then treated for 1 hr with 2 ng/mL TGFβ and analyzed for phosphorylation of Smad2 or GCN2 by Western blot. Data are representative of three separate experiments. Bottom panel: Western data in top panel were quantitated using Image J software.

Data set [2] concerns mouse embryo fibroblasts (MEFs). Put plainly: ECM gene expression and protein production in MEFs. The format is cell-based. The protocol: FIG. 26C. Proline rescues both HF stimulated and HF inhibited gene expression. MEFs were treated with or without HF (50 nM) and/or Proline (2 mM) for 4 hours (CHOP, S100A4) or 24 hours (CoLIA1, ColIA2). DMSO was used as vehicle control. Changes in mRNA levels are expressed as fold-change relative to control and normalized to expression of TBP. Error bars reflect standard deviation of determinations from plates of cells treated in triplicate, confidence interval (p-value) for the effect of HF alone versus HF+Pro was determined using a two-tailed Student's t test. Data are representative of two separate experiments.
(§1) FIG. 26D. HF-inhibition of collagen production is rescued by proline and doesn't affect overall protein synthesis. Cells were pre-incubated with HF with or without proline for 4 hours, and ^35S-methionine and HF with or without proline was added. 24 hours later, conditioned medium and total cell lysate was harvested. New production of Type I procollagen was measured in conditioned medium by Western blot, and bands quantitated using Image J quantitation software. The original blot is shown in FIG. 27; total protein synthesis was measured as TCA-precipitable ^35S in a scintillation counter. Error bars reflect standard deviation of triplicate determinations.
FIG. 33. Proline rescues HF-suppression of ECM protein production. MEFs were incubated for 4 hours in HF with or without 2 mM Pro, to measure new collagen production in conditioned medium (cells were washed into fresh DMEM/0.2% FBS with fresh HF and proline re-added, and either conditioned medium (for Type I procollagen) or total cell lysate (for fibronectin, […]) harvested twenty four hours later. Protein levels were assayed by Western blot.
Q-PCR was performed using the Roche LightCycle UPR system, using the following primers and probes: […]

For a further data set, the system named is MEFs. Put plainly: Total protein synthesis and metabolic activity (Alamar blue) of fibroblasts. The format is cell-based, mouse. The method, then: as §1
FIG. 29. HF effect on cellular metabolic activity. MEFs were incubated at indicated dose of HF with or without 2 mM proline for 24 hours and tested for metabolic activity using an Alamar blue assay (Invitrogen).
Background: Resazurin is reduced to fluorescent resorufin, in cell work by metabolically active cells.

Entries after “also recorded” stand apart in the source; their conditions may differ.

For `O=C(CC1NCCCC1O)Cn1cnc2cc(Br)c(Cl)cc2c1=O` (racemic) [HF, halofuginone], the “disease in passive EAE model” value in data set [1] is “kinetics and severity similar to control treated animals; also recorded: had no effect on an independent, passive model of EAE”. Besides, the “reconstituted prolyl-tRNA charging reaction with purified EPRS” value with EPRS is “inhibited this reaction”. In addition, the “time course of Smad2 inhibition versus GCN2 phosphorylation” value with Smad2 phosphorylation (20 nM HF) is listed as “much slower”. For the same molecule, the “reversal of Smad2 phosphorylation inhibition by proline” value in the data set on Smad2 phosphorylation (2 mM proline) is listed as “reversed by the addition of proline”. Further, the “TGF-beta-stimulated Smad2 phosphorylation” value in the data set on Smad2 phosphorylation (12 hours HF, same dose range as GCN2 phosphorylation) is listed as “reduced TGF-beta-stimulated Smad2 phosphorylation”. Also, the “mRNA levels of ColIA1, ColIA2, and S100A4” value in data set [2] (50 nM HF, 4 or 24 hours) is listed as “inhibited mRNA levels”. For the same molecule, the “CHOP mRNA expression” value in data set [2] (50 nM HF, 4 hours) is given as “stimulated”. For the same molecule, the “reversal of HF effects on ECM genes and proteins by proline” value in data set [2] (2 mM proline) is listed as “reversed by the addition of 2 mM proline”. In addition, in data set [2] (24 hours), the production of fibronectin entry is on record as “dramatically inhibited” and the “production of secreted Type I procollagen protein” value is “dramatically inhibited”. Besides, the “total metabolic activity of fibroblasts” value in the data set on MEFs is “unaffected”. Besides, in the data set with MEFs (doses inhibiting ECM proteins, 24 hours), the “35S-methionine incorporation into total protein” value is recorded as “did not significantly change”.
